Data published in patent US6706663B2, “Herbicidal 3-heterocyclic substituted benzisothiazole and benzisoxazole compounds” (Wyeth, priority 2000, dated 2004).

Assays:
[1] = test system: GLXMAW (Soybean, Williams); experiment: Preemergence herbicidal evaluation; format: in vivo, Glycine max, (L.) Merr. cv Williams; settings: preemergence, rated 4-5 weeks after treatment
[2] = test system: MOOVA (Monochoria vaginalis); experiment: Flooded paddy, preemergence weed control; format: in vivo, Presl.; settings: rated 3-4 weeks after treatment, 0-9 rating scale
Procedure, shortened: (§1)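 Seeds or propagating organs were sown in the top 0.5 cm of silt loam soil, flooded, and the water kept 1.5 to 3 cm above the soil surface throughout. Plants were grown in the greenhouse and rated visually on a 0-9 scale against a control.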

SETVI (Setaria viridis) [3] = experiment: Postemergence herbicidal evaluation; format: in vivo, (L.) Beau
Procedure, shortened: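 Postemergence foliar spray on two-week-old seedlings, dose equivalent to about 0.0040 to 1.000 kg/ha. Ratings use a 0-9 visual scale relative to control at four to five weeks.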

[4] = test system: ECHORC (Echinochloa oryzoides); experiment: Flooded paddy, preemergence weed control; format: in vivo, Echinochloa oryzoides (Ard.) Fritsch.; settings: rated 3-4 weeks after treatment, 0-9 rating scale
Procedure, shortened: as §1

ZEAMX (Corn, Field) = experiment: Preemergence herbicidal evaluation; format: in vivo, Zea mays, L.; settings: preemergence, rated 4-5 weeks after treatment
CYPIR (Cyperus iria) = experiment: Flooded paddy, preemergence weed control; format: in vivo; settings: rated 3-4 weeks after treatment, 0-9 rating scale
Procedure, shortened: as §1

[5] = test system: ECHCG (Echinochloa crus-galli); experiment: Preemergence herbicidal evaluation; format: in vivo, (L.) Beau; settings: preemergence, rated 4-5 weeks after treatment
Procedure, shortened: (§2)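 Visual 0–9 rating versus control (stand, vigor, malformation, size, chlorosis, overall appearance), scored four to five weeks post-treatment. Preemergence spray of aqueous acetone solution onto freshly seeded soil cups; plants grown under conventional greenhouse care.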

SETVI (Setaria viridis) [6] = experiment: Preemergence herbicidal evaluation; format: in vivo, (L.) Beau; settings: preemergence, rated 4-5 weeks after treatment
Procedure, shortened: as §2

[7] = test system: IPOHE (Ipomoea hederacea); experiment: Postemergence herbicidal evaluation; format: in vivo, (L.) Jacq.
Procedure, shortened: (§3)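 Seedlings grown about two weeks in flats, sprayed, then kept under standard greenhouse care. Rated visually 4–5 weeks after treatment on a 0–9 scale (stand, vigour, malformation, size, chlorosis, overall appearance) relative to untreated control; repeat tests averaged.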

[8] = test system: TRZAWR (Wheat, Winter, cv Riband); experiment: Postemergence herbicidal evaluation; format: in vivo, Triticum aestivum
Procedure, shortened: as §3

## COC(=O)C(C)Oc1ccsc1-c1nsc2ccc(-n3c(=O)cc(C(F)(F)F)n(C)c3=O)cc12 (stereo not drawn) [Compound 23, methyl 2-[(2-[5-[3,6-dihydro-3-methyl-2,6-dioxo-4-(trifluoromethyl)-1(2H)-pyrimidinyl]-1,2-benzisothiazol-3-yl]-3-thienyl]oxy]propionate]
[1]; Rate 0.0620 kg/ha
  GLXMAW preemergence herbicidal rating: 0.0
[1]; Rate 0.1250 kg/ha
  GLXMAW preemergence herbicidal rating: 0.0
[1]; Rate 0.2500 kg/ha
  GLXMAW preemergence herbicidal rating: 0.0
[2]; rate 0.0320 kg/ha
  herbicidal rating, MOOVA: 9.0
[2]; rate 0.1250 kg/ha
  herbicidal rating, MOOVA: 9.0
SETVI (Setaria viridis) [3]; rate 0.0320 kg/ha
  Postemergence herbicidal rating, SETVI: 1.0
SETVI (Setaria viridis) [3]; rate 0.0620 kg/ha
  Postemergence herbicidal rating, SETVI: 1.0
SETVI (Setaria viridis) [3]; rate 0.1250 kg/ha
  Postemergence herbicidal rating, SETVI: 7.0
[4]; rate 0.0320 kg/ha
  herbicidal rating, ECHORC: 0.0
[4]; rate 0.1250 kg/ha
  herbicidal rating, ECHORC: 3.0
ZEAMX (Corn, Field); Rate 0.0620 kg/ha
  ZEAMX preemergence herbicidal rating: 0.0
ZEAMX (Corn, Field); Rate 0.1250 kg/ha
  ZEAMX preemergence herbicidal rating: 0.0
ZEAMX (Corn, Field); Rate 0.2500 kg/ha
  ZEAMX preemergence herbicidal rating: 0.0
CYPIR (Cyperus iria); rate 0.0320 kg/ha
  herbicidal rating, CYPIR: 9.0
CYPIR (Cyperus iria); rate 0.1250 kg/ha
  herbicidal rating, CYPIR: 9.0
[5]; Rate 0.0620 kg/ha
  ECHCG preemergence herbicidal rating: 0.0
[5]; Rate 0.1250 kg/ha
  ECHCG preemergence herbicidal rating: 0.0
[5]; Rate 0.2500 kg/ha
  ECHCG preemergence herbicidal rating: 1.0
SETVI (Setaria viridis) [6]; Rate 0.0620 kg/ha
  SETVI preemergence herbicidal rating: 0.0
SETVI (Setaria viridis) [6]; Rate 0.1250 kg/ha
  SETVI preemergence herbicidal rating: 0.0
SETVI (Setaria viridis) [6]; Rate 0.2500 kg/ha
  SETVI preemergence herbicidal rating: 1.0
[7]; rate 0.0320 kg/ha
  Postemergence herbicidal rating, IPOHE: 6.0
[7]; rate 0.0620 kg/ha
  Postemergence herbicidal rating, IPOHE: 5.0
[7]; rate 0.1250 kg/ha
  Postemergence herbicidal rating, IPOHE: 9.0
[8]; rate 0.0320 kg/ha
  Postemergence herbicidal rating, TRZAWR: 2.5
[8]; rate 0.0620 kg/ha
  Postemergence herbicidal rating, TRZAWR: 3.5
[8]; rate 0.1250 kg/ha
  Postemergence herbicidal rating, TRZAWR: 5.0

## Cn1c(C(F)(F)F)cc(=O)n(-c2ccc3snc(C4SCCS4)c3c2)c1=O [Compound 24, 3-[3-(1,3-dithiolan-2-yl)-1,2-benzisothiazol-5-yl]-1-methyl-6-(trifluoromethyl)uracil]
[1]; Rate 0.0620 kg/ha
  GLXMAW preemergence herbicidal rating: 2.0
[1]; Rate 0.1250 kg/ha
  GLXMAW preemergence herbicidal rating: 2.5
[1]; Rate 0.2500 kg/ha
  GLXMAW preemergence herbicidal rating: 4.0
[2]; rate 0.0320 kg/ha
  herbicidal rating, MOOVA: 5.0
[2]; rate 0.1250 kg/ha
  herbicidal rating, MOOVA: 8.0
SETVI (Setaria viridis) [3]; rate 0.0320 kg/ha
  Postemergence herbicidal rating, SETVI: 0.0
SETVI (Setaria viridis) [3]; rate 0.0620 kg/ha
  Postemergence herbicidal rating, SETVI: 3.0
[4]; rate 0.0320 kg/ha
  herbicidal rating, ECHORC: 5.0
[4]; rate 0.1250 kg/ha
  herbicidal rating, ECHORC: 7.0
ZEAMX (Corn, Field); Rate 0.0620 kg/ha
  ZEAMX preemergence herbicidal rating: 0.0
ZEAMX (Corn, Field); Rate 0.1250 kg/ha
  ZEAMX preemergence herbicidal rating: 1.0
ZEAMX (Corn, Field); Rate 0.2500 kg/ha
  ZEAMX preemergence herbicidal rating: 3.0
CYPIR (Cyperus iria); rate 0.0320 kg/ha
  herbicidal rating, CYPIR: 0.0
CYPIR (Cyperus iria); rate 0.1250 kg/ha
  herbicidal rating, CYPIR: 5.0
[5]; Rate 0.0620 kg/ha
  ECHCG preemergence herbicidal rating: 0.0
[5]; Rate 0.1250 kg/ha
  ECHCG preemergence herbicidal rating: 1.5
[5]; Rate 0.2500 kg/ha
  ECHCG preemergence herbicidal rating: 5.0
SETVI (Setaria viridis) [6]; Rate 0.0620 kg/ha
  SETVI preemergence herbicidal rating: 3.5
SETVI (Setaria viridis) [6]; Rate 0.1250 kg/ha
  SETVI preemergence herbicidal rating: 8.0
SETVI (Setaria viridis) [6]; Rate 0.2500 kg/ha
  SETVI preemergence herbicidal rating: 9.0
[7]; rate 0.0320 kg/ha
  Postemergence herbicidal rating, IPOHE: 9.0
[7]; rate 0.0620 kg/ha
  Postemergence herbicidal rating, IPOHE: 9.0
[8]; rate 0.0320 kg/ha
  Postemergence herbicidal rating, TRZAWR: 4.0
[8]; rate 0.0620 kg/ha
  Postemergence herbicidal rating, TRZAWR: 4.0

## Cn1c(C(F)(F)F)cc(=O)n(-c2ccc3snc(C4OCCCO4)c3c2)c1=O [Compound 28, 3-(3-m-dioxan-2-yl-1,2-benzisothiazol-5-yl)-1-methyl-6-(trifluoromethyl)uracil]
[1]; Rate 0.0620 kg/ha
  GLXMAW preemergence herbicidal rating: 8.0
[1]; Rate 0.1250 kg/ha
  GLXMAW preemergence herbicidal rating: 9.0
[1]; Rate 0.2500 kg/ha
  GLXMAW preemergence herbicidal rating: 9.0
[2]; rate 0.0080 kg/ha
  herbicidal rating, MOOVA: 9.0
[2]; rate 0.0320 kg/ha
  herbicidal rating, MOOVA: 9.0
[2]; rate 0.1250 kg/ha
  herbicidal rating, MOOVA: 9.0
SETVI (Setaria viridis) [3]; rate 0.0320 kg/ha
  Postemergence herbicidal rating, SETVI: 8.3
SETVI (Setaria viridis) [3]; rate 0.0620 kg/ha
  Postemergence herbicidal rating, SETVI: 8.5
[4]; rate 0.0080 kg/ha
  herbicidal rating, ECHORC: 5.0
[4]; rate 0.0320 kg/ha
  herbicidal rating, ECHORC: 8.5
[4]; rate 0.1250 kg/ha
  herbicidal rating, ECHORC: 9.0
ZEAMX (Corn, Field); Rate 0.0620 kg/ha
  ZEAMX preemergence herbicidal rating: 8.0
ZEAMX (Corn, Field); Rate 0.1250 kg/ha
  ZEAMX preemergence herbicidal rating: 9.0
ZEAMX (Corn, Field); Rate 0.2500 kg/ha
  ZEAMX preemergence herbicidal rating: 9.0
CYPIR (Cyperus iria); rate 0.0080 kg/ha
  herbicidal rating, CYPIR: 8.0
CYPIR (Cyperus iria); rate 0.0320 kg/ha
  herbicidal rating, CYPIR: 9.0
CYPIR (Cyperus iria); rate 0.1250 kg/ha
  herbicidal rating, CYPIR: 9.0
[5]; Rate 0.0620 kg/ha
  ECHCG preemergence herbicidal rating: 9.0
[5]; Rate 0.1250 kg/ha
  ECHCG preemergence herbicidal rating: 9.0
[5]; Rate 0.2500 kg/ha
  ECHCG preemergence herbicidal rating: 9.0
SETVI (Setaria viridis) [6]; Rate 0.0620 kg/ha
  SETVI preemergence herbicidal rating: 9.0
SETVI (Setaria viridis) [6]; Rate 0.1250 kg/ha
  SETVI preemergence herbicidal rating: 9.0
SETVI (Setaria viridis) [6]; Rate 0.2500 kg/ha
  SETVI preemergence herbicidal rating: 9.0
[7]; rate 0.0320 kg/ha
  Postemergence herbicidal rating, IPOHE: 8.3
[7]; rate 0.0620 kg/ha
  Postemergence herbicidal rating, IPOHE: 9.0
[8]; rate 0.0320 kg/ha
  Postemergence herbicidal rating, TRZAWR: 5.0
[8]; rate 0.0620 kg/ha
  Postemergence herbicidal rating, TRZAWR: 6.5
